In the supplement of paper PMC10307832:

Compound: CO[C@H]1C[C@@H]2CC[C@@H](C)[C@@](O)(O2)C(=O)C(=O)N2CCCC[C@H]2C(=O)O[C@H]([C@H](C)C[C@@H]2CC[C@@H](OCCO)[C@H](OC)C2)CC(=O)[C@H](C)/C=C(\C)[C@@H](O)[C@@H](OC)C(=O)[C@H](C)C[C@H](C)/C=C/C=C/C=C/1C [Everolimus] + COc1cc2c(Oc3ccc(NC(=O)C4(C(=O)Nc5ccc(F)cc5)CC4)cc3F)ccnc2cc1OCCCN1CCOCC1 [Foretinib] (partner 0.25 µM)
Assay: relative viability (nuclei count vs DMSO), 5 days (fraction); higher = more cells survive
Method in brief: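 Relative viability is defined as nuclei in treated wells over nuclei in vehicle wells. Duplicate plates were run and medians reported. Lung cancer cell lines in 1536-well plates were dosed by pin tool one day after seeding, with one drug or with a fixed anchor-drug dose plus five library-drug doses (not always all listed) in √10 steps, and nuclei were counted after 5 days.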

Cell Line | relative viability (first compound 0.01 µM) | relative viability (first compound 0.03162 µM) | relative viability (first compound 0.1 µM) | relative viability (first compound 0.3162 µM) | relative viability (first compound 1 µM)
EPLC-272H | 0.451 | 0.414 | 0.443 | 0.417 | 0.489
UMC-11 | 0.478 | 0.371 | 0.441 | 0.422 | 0.401
NCI-H1993 | 0.554 | 0.592 | 0.667 | 0.628 | 0.627
NCI-H596 | 0.435 | 0.494 | 0.512 | 0.442 | 0.477
NCI-H1793 | 0.293 | 0.314 | 0.259 | 0.293 | 0.291
NCI-H1563 | 0.721 | 0.768 | 0.685 | 0.712 | 0.562
NCI-H1395 | 0.901 | 0.683 | 0.727 | 0.617 | 0.627
NCI-H1299 | 1.06 | 1.21 | 0.634 | 1.07 | 1.05
HCC-827 | 0.929 | 0.982 | 0.906 | 0.828 | 0.771
ChaGo-K-1 | 0.903 | 0.85 | 0.884 | 0.761 | 0.805
NCI-H2228 | 0.603 | 0.586 | 0.575 | 0.413 | 0.556
NCI-H2170 | 0.635 | 0.641 | 0.654 | 0.587 | 0.614
EMC-BAC-2 | 0.66 | 0.564 | 0.576 | 0.643 | 0.521
NCI-H2342 | 0.924 | 0.654 | 0.551 | 0.618 | 0.681
A549 | 0.688 | 0.421 | 0.306 | 0.393 | 0.435
NCI-H23 | 0.751 | 0.654 | 0.527 | 0.529 | 0.517
RERF-LC-KJ | 0.686 | 0.694 | 0.578 | 0.539 | 0.559
NCI-H358 | 0.432 | 0.45 | 0.496 | 0.388 | 0.432
LC-2-ad | 0.741 | 0.659 | 0.703 | 0.674 | 0.693

Cell Line | relative viability (first compound 0.01 µM) | relative viability (first compound 0.03162 µM) | relative viability (first compound 0.1 µM) | relative viability (first compound 0.3162 µM) | relative viability (first compound 1 µM)
HCC-15 | 1.15 | 1.03 | 1.01 | 0.964 | 0.985
NCI-H2405 | 0.973 | 0.857 | 0.763 | 0.809 | 0.781
LXF-289 | 1.03 | 1 | 0.936 | 0.99 | 1
CAL-12T | 0.628 | 0.686 | 0.651 | 0.792 | 0.821
COR-L23 | 0.942 | 0.993 | 0.871 | 0.97 | 0.959
NCI-H1755 | 0.791 | 0.751 | 0.653 | 0.822 | 0.632
NCI-H1437 | 1.29 | 1.18 | 1.21 | 1.23 | 1.15
NCI-H2085 | 0.812 | 0.584 | 0.617 | 0.777 | 0.695
IA-LM | 0.927 | 0.547 | 0.476 | 0.595 | 0.42
H3255 | 0.572 | 0.621 | 0.458 | 0.294 | 0.565
NCI-H650 | 1.01 |  | 0.842 | 0.816 | 0.649
LCLC-103H | 0.597 | 0.572 | 0.522 | 0.545 | 0.574
LOU-NH91 | 0.853 | 0.793 | 0.712 | 0.746 | 0.691
NCI-H1650 | 0.827 | 0.928 | 0.973 | 0.966 | 1.01
NCI-H3122 | 0.818 | 0.621 | 0.351 | 0.494 | 0.801
PC-3 [JPC-3] | 1.16 | 1.13 | 0.994 | 0.985 | 0.987
Calu-6 | 0.845 | 0.785 | 0.811 | 0.77 | 0.742
NCI-H1651 | 0.523 | 0.556 | 0.562 | 0.431 | 0.558
NCI-H2087 | 0.704 | 0.662 | 0.739 | 0.875 | 0.713
